Test results from ChEMBL document CHEMBL1201862, “PubChem BioAssay data set” (2004).
Activity calls are given as the source filed them.

What was measured:
Leucine aminopeptidase = molecular target: T1, Leucine aminopeptidase (Plasmodium falciparum 3D7, UniProt Q8IL11); experiment: P. falciparum M17LAP inhibitors, primary screen, biochemical, fluorogenic H-Leu-NHMec substrate, 1536-well (AID 1619); format: functional
T1 sequence (Q8IL11 whole entry): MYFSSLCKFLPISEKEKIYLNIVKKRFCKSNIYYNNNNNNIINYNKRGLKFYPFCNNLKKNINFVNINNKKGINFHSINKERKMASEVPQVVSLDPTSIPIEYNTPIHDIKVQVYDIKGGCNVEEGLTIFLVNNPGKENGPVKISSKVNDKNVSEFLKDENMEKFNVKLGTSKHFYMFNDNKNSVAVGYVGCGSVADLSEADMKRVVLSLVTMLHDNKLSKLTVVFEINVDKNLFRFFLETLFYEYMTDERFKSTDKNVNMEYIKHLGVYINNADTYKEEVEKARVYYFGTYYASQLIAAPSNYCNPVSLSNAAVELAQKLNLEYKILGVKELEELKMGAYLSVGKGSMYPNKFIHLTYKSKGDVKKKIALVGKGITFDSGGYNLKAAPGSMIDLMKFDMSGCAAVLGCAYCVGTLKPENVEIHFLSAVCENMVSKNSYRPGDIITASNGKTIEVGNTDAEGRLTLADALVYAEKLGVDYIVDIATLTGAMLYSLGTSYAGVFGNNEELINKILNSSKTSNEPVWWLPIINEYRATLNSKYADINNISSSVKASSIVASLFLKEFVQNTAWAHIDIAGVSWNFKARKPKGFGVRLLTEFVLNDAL

[1] = molecular target: T2, E3 ubiquitin-protein ligase XIAP (Homo sapiens, UniProt P98170); experiment: Counter Screen using XIAP-Bir3 for Chemical Antagonists of Bir1/2 domains of IAP-family anti-apoptotic proteins. [Related pubchem assays (depositor defined):AID1018, AID1449, AID1514, AID1638, AID1749, AID1750, AID488957, AID488963]
[2] = molecular target: T2, E3 ubiquitin-protein ligase XIAP; experiment: small molecules displacing peptide from XIAP – biochemical, IAP family, fluorescence polarization (AID 1018); format: functional
[3] = blockers of HIV-1 ZM109 envelope-driven cell-cell fusion – HeLa effector, CEM target cells, luciferase, cherry-pick, dose response (AID 652058); format: functional, cell-based;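 note: luciferase signal from HIV-1 Env mediated cell-cell fusion of effector and target cells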
[4] = off-target signal loss in HeLa-CEM21 co-culture – HeLa F-luc CTL cells, cherry-picked, counter-screen for HIV-1 Env fusion inhibitor project, dose response (AID 652040); format: functional, cell-based;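 note: potency for signal decrease marking cytotoxic or nonspecific inhibition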
[5] = blockers of HIV-1 envelope-mediated cell-cell fusion – cherry-pick, dose response (AID 652057); format: functional, cell-based
[6] = HIV-1 AD8 envelope cell-cell fusion blockers – cherry-pick, dose response (AID 652062); format: functional, cell-based;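 note: luciferase signal from cell-cell fusion driven by HIV-1 clade B AD8 Env; potency is for inhibitors of fusion seen as a drop in luminescence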
[7] = molecular target: Voltage-dependent T-type calcium channel subunit alpha-1H (Homo sapiens, UniProt O95180); format: functional;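 note: channel activity triggered by adding a high calcium stimulation buffer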
Beta-lactamase [8] = molecular target: T3, Beta-lactamase (Pseudomonas aeruginosa, UniProt Q79MP6); experiment: […] counterscreen for selective VIM-2 inhibitors: dose response biochemical high throughput screening assay to identify inhibitors of IMP-1 metallo-beta-lactamase.
Beta-lactamase [9] = molecular target: T3, Beta-lactamase; experiment: inhibition of IMP-1 beta-lactamase activity – biochemical, epi-absorbance, selectivity assay for VIM-2 inhibitor project, dose response (AID 1920)
Beta-lactamase [10] = molecular target: Beta-lactamase (Salmonella choleraesuis (strain SC-B67), UniProt Q5J463); experiment: Epi-absorbance-based counterscreen for selective VIM-2 inhibitors: dose response biochemical high throughput screening assay to identify inhibitors of TEM-1 serine-beta-lactamase.
Large T antigen = Large T antigen (Simian virus 40, UniProt P03070); format: functional, Betapolyomavirus macacae;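 note: Confirmatory-stage PubChem screen for compounds that inhibit SV40 T antigen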
[11] = molecular target: Induced myeloid leukemia cell differentiation protein Mcl-1 (Homo sapiens, UniProt Q07820); format: functional
[12] = HEK-293T viability loss after treatment – luminescence, T-cell screen hits, cytotoxicity control for TCR NF-kB inhibitor project, dose response (AID 489026); format: functional, cell-based;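 note: cells exposed to compound about 14 hours before the viability readout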
BJ [13] = experiment: BJ-TERT-LT-ST fibroblast viability loss – cell-based, RAS-independent, luminescence, dose response (AID 1935); format: functional; details: Homo sapiens;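 note: BJ fibroblasts immortalized with TERT plus LT and ST oncogenes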
[14] = DRD fibroblast viability loss – cell-based, non-viral oncogenic, luminescence, dose response (AID 1934); format: functional; details: Homo sapiens
BJ [15] = experiment: BJ-TERT fibroblast viability loss – cell-based, RAS-independent, luminescence, dose response (AID 1933); format: functional; details: Homo sapiens
BJ [16] = experiment: cells; format: functional, cell-based; details: Homo sapiens
[17] = molecular target: E3 ubiquitin-protein ligase Mdm2 (Homo sapiens, UniProt Q00987); experiment: MDM2-luc reporter signal enhancers, multi-concentration potency testing, MDM2 ubiquitin-protein ligase inhibitor program, whole-cell format, luminescence detection, 384-well microplate (AID 1394); format: functional;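 note: MDM2 E3 inhibitors raise luminescence so EC50 is for signal enhancement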
Nonstructural protein 1 = Nonstructural protein 1 (Influenza A virus, UniProt Q194T2); format: functional, Influenza A virus (A/California/07/2009(H1N1))
[18] = fluconazole-exposed Candida albicans growth modulators – fluorescence, retest, confirmation (AID 2467); format: functional, cell-based
[19] = A Cell Based Secondary Assay To Explore Cytotoxicity of Compounds that Sensitize Mycobacterium Tuberculosis to Beta-Lactam Antibiotics.; format: functional
[20] = NIH-3T3 fibroblast cytotoxicity, dose response, cytotoxicity control, cell-based, fluorescence, Alamar Blue, secondary assay (AID 2327); format: functional;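 note: NIH-3T3 mouse fibroblasts cultured with fluconazole at 8 µg/mL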
[21] = molecular target: T4, Carboxy-terminal domain RNA polymerase II polypeptide A small phosphatase 1 (Homo sapiens, UniProt Q9GZU7); experiment: CTDSP1 inhibitors, concentration-response, biochemical, absorbance readout, ultra-high-throughput screen actives (AID 540297); format: functional
T4 sequence (Q9GZU7 whole entry): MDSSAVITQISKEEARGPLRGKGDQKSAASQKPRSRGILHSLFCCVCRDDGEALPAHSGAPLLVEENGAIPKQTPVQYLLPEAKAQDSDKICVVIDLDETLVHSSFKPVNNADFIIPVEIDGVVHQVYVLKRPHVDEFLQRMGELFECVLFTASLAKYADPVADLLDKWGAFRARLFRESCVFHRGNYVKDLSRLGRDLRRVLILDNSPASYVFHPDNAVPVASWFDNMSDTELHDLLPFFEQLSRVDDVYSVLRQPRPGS

[22] = P. falciparum Dd2 growth inhibitors, dose response, SYBR Green, cherry-picked samples (AID 1159567); format: functional, cell-based
[23] = growth inhibition of PfATP4-mutant resistant parasites – NITD609-resistant line, SYBR Green, dry powder, dose response (AID 1159571); format: functional, cell-based;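 note: parasites synchronized at ring stage by sorbitol before testing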
[24] = toxicity to human HepG2 hepatoma cells – cell-based, plate reader, dry powder samples, cytotoxicity control, dose response (AID 1159569); format: functional;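 note: inhibitor potency with signal falling toward the positive control level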
[25] = growth inhibition of yeast DHODH-expressing 3D7 parasites – SYBR Green, dry powder samples, dose response (AID 1159570); format: functional, cell-based;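 note: parasite growth measured after 72 hours of compound exposure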
[26] = Dd2 malaria parasite growth inhibition potency – SYBR Green, dry powder samples, dose response (AID 1159566); format: functional, cell-based;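 note: potency for growth inhibition with lower SYBR green DNA signal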
[27] = molecular target: T5, Alkaline phosphatase, tissue-nonspecific isozyme (Homo sapiens, UniProt P05186); experiment: potency against alkaline phosphatase TNAP – biochemical, luminescent, dose response, SAR follow-up (AID 1056)
T5 sequence (P05186 whole entry): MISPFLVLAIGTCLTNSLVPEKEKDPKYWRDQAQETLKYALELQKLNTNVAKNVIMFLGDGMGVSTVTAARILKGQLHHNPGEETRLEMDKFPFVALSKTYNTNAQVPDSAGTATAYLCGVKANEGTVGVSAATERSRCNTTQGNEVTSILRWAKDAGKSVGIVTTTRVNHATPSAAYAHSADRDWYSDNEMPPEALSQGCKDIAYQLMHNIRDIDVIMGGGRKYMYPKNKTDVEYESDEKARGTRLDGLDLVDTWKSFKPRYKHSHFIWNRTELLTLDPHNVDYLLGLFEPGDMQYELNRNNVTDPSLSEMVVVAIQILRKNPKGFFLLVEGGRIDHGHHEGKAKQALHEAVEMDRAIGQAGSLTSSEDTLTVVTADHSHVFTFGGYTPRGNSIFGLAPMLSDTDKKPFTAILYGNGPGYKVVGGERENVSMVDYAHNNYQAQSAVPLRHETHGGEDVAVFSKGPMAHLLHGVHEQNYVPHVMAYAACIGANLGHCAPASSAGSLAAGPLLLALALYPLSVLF

Sequence of Voltage-dependent T-type calcium channel subunit alpha-1H (O95180 whole entry): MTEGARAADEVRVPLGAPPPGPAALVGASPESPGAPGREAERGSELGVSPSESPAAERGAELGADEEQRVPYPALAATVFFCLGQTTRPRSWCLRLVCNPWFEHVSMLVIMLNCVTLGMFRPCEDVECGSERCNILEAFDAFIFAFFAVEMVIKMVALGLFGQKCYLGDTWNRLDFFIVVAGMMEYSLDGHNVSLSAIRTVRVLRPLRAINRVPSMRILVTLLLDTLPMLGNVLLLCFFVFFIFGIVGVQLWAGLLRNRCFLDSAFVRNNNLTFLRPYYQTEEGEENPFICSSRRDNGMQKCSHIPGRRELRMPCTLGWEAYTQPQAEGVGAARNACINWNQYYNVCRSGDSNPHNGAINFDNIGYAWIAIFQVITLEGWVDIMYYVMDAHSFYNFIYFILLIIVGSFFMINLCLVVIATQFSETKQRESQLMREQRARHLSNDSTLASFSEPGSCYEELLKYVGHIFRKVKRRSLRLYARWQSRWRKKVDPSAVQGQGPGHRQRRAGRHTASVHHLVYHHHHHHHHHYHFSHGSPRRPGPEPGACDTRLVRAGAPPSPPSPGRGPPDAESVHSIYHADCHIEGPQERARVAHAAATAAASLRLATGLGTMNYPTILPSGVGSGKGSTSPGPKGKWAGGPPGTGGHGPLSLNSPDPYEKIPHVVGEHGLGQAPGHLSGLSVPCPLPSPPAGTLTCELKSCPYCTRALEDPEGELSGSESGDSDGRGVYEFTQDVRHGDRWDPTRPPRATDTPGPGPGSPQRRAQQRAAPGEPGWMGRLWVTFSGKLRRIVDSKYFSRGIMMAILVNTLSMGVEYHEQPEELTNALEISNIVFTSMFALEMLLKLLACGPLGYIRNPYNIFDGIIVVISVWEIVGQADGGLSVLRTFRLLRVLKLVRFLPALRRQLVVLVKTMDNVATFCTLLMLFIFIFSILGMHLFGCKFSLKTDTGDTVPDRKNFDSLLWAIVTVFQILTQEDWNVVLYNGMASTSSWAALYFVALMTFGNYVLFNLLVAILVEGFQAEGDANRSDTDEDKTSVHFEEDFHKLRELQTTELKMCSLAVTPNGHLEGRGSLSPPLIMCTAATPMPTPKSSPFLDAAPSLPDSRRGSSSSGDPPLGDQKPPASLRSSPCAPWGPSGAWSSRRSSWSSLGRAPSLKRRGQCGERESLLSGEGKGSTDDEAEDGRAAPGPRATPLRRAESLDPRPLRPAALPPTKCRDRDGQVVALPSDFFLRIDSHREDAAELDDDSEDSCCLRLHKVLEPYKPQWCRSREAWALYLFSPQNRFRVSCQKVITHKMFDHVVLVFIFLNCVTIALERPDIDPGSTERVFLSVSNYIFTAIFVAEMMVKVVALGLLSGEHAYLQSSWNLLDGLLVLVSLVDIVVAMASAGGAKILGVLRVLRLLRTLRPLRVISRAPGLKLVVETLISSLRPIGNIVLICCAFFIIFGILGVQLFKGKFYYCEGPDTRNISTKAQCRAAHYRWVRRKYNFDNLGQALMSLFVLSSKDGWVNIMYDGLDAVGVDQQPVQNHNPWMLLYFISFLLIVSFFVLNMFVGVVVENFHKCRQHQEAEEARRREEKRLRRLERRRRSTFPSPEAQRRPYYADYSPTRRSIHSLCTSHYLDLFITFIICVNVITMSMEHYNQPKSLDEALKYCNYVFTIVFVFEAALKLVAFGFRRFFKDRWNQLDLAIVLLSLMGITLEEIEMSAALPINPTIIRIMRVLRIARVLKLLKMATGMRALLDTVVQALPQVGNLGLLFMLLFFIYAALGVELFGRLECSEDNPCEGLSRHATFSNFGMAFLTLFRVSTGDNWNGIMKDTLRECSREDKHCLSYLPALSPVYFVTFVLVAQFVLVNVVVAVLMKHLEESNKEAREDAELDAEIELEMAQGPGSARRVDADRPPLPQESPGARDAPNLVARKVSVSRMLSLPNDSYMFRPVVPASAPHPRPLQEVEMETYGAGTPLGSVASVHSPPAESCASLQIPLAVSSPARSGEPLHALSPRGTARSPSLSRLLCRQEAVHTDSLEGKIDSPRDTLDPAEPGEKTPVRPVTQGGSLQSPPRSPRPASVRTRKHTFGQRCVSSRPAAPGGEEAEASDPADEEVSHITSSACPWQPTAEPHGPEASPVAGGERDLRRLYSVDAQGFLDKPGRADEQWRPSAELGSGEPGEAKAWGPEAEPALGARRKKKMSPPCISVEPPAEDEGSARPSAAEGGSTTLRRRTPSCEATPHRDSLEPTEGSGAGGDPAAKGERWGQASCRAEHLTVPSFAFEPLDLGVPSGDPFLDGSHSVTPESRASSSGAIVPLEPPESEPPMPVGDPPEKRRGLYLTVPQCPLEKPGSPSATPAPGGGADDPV
T3 sequence (Q79MP6 whole entry): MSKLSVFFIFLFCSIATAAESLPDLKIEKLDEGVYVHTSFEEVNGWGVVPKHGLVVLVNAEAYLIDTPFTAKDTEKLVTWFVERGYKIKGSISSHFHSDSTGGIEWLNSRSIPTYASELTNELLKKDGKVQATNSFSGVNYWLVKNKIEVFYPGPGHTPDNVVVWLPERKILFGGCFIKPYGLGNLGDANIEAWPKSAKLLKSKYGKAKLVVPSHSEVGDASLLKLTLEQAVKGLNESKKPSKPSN
T2 sequence (P98170 whole entry): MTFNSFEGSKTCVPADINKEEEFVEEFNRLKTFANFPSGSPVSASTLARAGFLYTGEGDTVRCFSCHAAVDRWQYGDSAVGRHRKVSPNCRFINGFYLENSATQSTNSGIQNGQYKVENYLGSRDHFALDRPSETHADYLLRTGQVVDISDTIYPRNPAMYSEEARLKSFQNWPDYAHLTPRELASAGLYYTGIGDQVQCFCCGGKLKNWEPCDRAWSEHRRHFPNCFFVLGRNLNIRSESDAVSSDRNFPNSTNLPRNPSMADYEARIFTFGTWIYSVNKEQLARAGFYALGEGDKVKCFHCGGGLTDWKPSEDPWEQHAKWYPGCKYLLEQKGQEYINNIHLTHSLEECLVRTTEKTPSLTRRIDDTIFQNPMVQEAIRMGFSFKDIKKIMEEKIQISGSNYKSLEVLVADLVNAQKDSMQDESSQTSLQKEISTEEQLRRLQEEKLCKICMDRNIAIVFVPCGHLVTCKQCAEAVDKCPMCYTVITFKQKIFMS
Sequence of Induced myeloid leukemia cell differentiation protein Mcl-1 (Q07820 whole entry): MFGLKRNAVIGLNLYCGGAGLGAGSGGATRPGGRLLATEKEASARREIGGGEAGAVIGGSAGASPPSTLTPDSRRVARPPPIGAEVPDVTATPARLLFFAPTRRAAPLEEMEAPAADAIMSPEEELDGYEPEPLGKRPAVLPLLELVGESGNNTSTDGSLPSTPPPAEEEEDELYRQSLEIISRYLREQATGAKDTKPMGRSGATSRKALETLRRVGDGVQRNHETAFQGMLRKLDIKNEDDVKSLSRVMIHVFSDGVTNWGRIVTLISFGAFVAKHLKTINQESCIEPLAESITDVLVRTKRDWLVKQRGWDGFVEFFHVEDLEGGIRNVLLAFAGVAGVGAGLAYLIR
Sequence of Nonstructural protein 1 (Q194T2 whole entry): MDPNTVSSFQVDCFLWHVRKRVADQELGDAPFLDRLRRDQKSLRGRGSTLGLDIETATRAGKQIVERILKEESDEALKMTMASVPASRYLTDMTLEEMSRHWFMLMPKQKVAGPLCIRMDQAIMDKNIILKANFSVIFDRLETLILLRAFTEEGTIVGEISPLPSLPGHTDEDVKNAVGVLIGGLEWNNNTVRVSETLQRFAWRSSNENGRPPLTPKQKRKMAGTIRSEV
Sequence of E3 ubiquitin-protein ligase Mdm2 (Q00987 whole entry): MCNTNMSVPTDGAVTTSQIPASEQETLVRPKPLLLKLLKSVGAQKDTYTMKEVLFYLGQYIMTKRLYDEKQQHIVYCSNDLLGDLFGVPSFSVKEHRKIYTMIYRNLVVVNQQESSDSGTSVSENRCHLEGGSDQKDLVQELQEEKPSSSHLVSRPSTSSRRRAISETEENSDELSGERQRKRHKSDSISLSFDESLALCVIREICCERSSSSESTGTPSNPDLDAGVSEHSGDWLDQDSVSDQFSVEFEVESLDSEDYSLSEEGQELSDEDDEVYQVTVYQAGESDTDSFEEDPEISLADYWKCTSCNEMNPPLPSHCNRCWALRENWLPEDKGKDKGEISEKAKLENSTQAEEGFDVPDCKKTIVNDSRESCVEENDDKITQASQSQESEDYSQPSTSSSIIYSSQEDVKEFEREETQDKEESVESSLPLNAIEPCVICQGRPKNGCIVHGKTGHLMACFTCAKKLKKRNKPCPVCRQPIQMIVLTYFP
Sequence of Beta-lactamase (Salmonella choleraesuis (strain SC-B67), UniProt Q5J463) (Q5J463 whole entry): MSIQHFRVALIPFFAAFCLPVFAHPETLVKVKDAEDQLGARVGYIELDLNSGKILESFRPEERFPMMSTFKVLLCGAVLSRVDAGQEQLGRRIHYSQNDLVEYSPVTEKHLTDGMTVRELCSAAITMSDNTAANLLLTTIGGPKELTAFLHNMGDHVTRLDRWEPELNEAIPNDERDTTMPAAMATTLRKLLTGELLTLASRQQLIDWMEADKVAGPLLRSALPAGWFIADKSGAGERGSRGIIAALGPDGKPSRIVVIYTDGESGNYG

Cc1ccccc1NC(=O)CSc1nc(O)cc(C)c1C#N
IC50 (Leucine aminopeptidase): 10.9 µM (active)

CCn1c(=O)cc(OCC(=O)NCCC(C)C)c2ccccc21
IC50 [1]: > 100 µM (inactive)
IC50 [2]: > 100 µM (not active)

O=c1c2ccccc2nc(CN2CCCCCC2)n1-c1ccc(F)cc1
AC50 [3]: 30.2 µM (active)
AC50 [4]: 10.1 µM (active)
AC50 [5]: 20.9 µM (active)
AC50 [6]: 50.6 µM (active)

CCC12CN3CCN(CC(C3)C1O)C2 (stereo not given)
IC50 [1]: > 100 µM (inactive)
IC50 [2]: > 100 µM (not active)

Cc1cccc(NC(=O)CSc2nnc(NC(=O)CN3CCOCC3)s2)c1
IC50 (Leucine aminopeptidase): 14 µM (active)

O=C(Nc1ccc2c(c1)OCO2)C1CCN(Cc2cnn(-c3ccccc3)c2-n2cccc2)CC1
EC50 [7]: 5.88 µM (active)

Cc1cccc(C2c3[nH]c4ccccc4c3CCN2C(=O)c2cc(CC(C)C)nc(=O)[nH]2)n1 (stereo not given)
IC50 (Beta-lactamase [8]): > 59.6 µM (inactive)
IC50 (Beta-lactamase [9]): > 59.6 µM (inactive)
IC50 (Beta-lactamase [10]): > 59.6 µM (inactive)

CCOC(=O)c1c(NC(C)=O)sc2c(O)c(Br)cc(Br)c12
IC50 (Large T antigen): 56.7 µM (active)
IC50 [11]: 4.76 µM (active)

Cc1ccc(-c2nc(NC(=O)CSc3ccc4ccccc4n3)ns2)cc1
IC50 [1]: > 100 µM (inactive)
IC50 [2]: > 100 µM (not active)

Cc1oc(-c2ccccc2)nc1Cn1cccc1C1=NC(c2ccccc2)CO1 (stereo not given)
EC50 [7]: 7.51 µM (active)

CCSc1nc2ccccc2n1C(=O)/C=C\c1ccc(OC)c(OC)c1
IC50 [12]: > 80 µM (inactive)
EC50 (BJ [13]): 5.15 µM (inconclusive)
EC50 [14]: 4.6 µM (inconclusive)
EC50 (BJ [15]): 4.41 µM (inconclusive)
EC50 (BJ [16]): 8.04 µM (active)
EC50 [17]: 0.24 µM (active)

Cc1ccc(Cl)cc1N1CCN(Cc2nnnn2Cc2ccco2)CC1
EC50 [7]: 0.633 µM (active)

CCOc1c(C)cnc2c1c(=O)n(Cc1ccc(Cl)cc1)c(=O)n2C
AC50 [3]: 12.1 µM (active)
AC50 [4]: 12.5 µM (active)
AC50 [5]: 7.77 µM (active)
AC50 [6]: 8.07 µM (active)

Cc1cccc(Nc2nnc(SCC3CCCCO3)s2)c1C (stereo not given)
EC50 [17]: 12.4 µM (not active)

COC(=O)c1ccc(Cl)c(NC(=O)CSc2nnc[nH]2)c1
IC50 (Leucine aminopeptidase): 35.1 µM (active)

COc1ccc(C2=NS(=O)(=O)N(C)C(C(=O)Nc3ccc4c(c3)OCO4)=C2)cc1OC
IC50 (Nonstructural protein 1): > 100 µM (active)

CCC1(C(=O)OC)CCc2c(cc(OC)c3ccccc23)C1=O (stereo not given)
IC50 [11]: > 54 µM (not active)

Cn1c(-c2sccc2OCc2ccc(Cl)cc2Cl)n[nH]c1=S
IC50 (Beta-lactamase [8]): > 59.6 µM (inactive)
IC50 (Beta-lactamase [9]): > 59.6 µM (inactive)
IC50 (Beta-lactamase [10]): > 59.6 µM (inactive)

CC1CCN(S(=O)(=O)c2ccc(NN=C(C#N)C#N)cc2)CC1
EC50 [7]: 1.52 µM (active)

CCCCCn1c(=O)c(C(=O)NCc2ccncc2)c(O)c2ccccc21
EC50 [18]: > 38 µM (not active)
CC50 [19]: 14.7 µM (active)
EC50 [20]: > 150 µM (inactive)

COc1ccc(NC(=O)C(=O)NCC2CCCN2S(=O)(=O)c2cccs2)cc1 (stereo not given)
IC50 [12]: > 80 µM (inactive)
AC50 [4]: > 70 µM (inactive)

O=c1/c(=C/c2ccc(O)c([N+](=O)[O-])c2)sc2nc3ccccc3n12
IC50 [21]: 1.83 µM (active)
IC50 [11]: 3.94 µM (active)

COc1ccccc1-c1cccc(-c2nc(C(=O)Nc3nccs3)cc3c2[C@H](CCO)N(C(C)=O)C3)c1
AC50 [22]: 2.15 µM (active)
AC50 [23]: 1.96 µM (active)
AC50 [24]: 66.8 µM (active)
AC50 [25]: 3.93 µM (active)
AC50 [26]: 2.08 µM (active)

C/C(=N\NC(=O)c1ccccc1O)c1ccc(Br)s1
CC50 [19]: 24.4 µM (active)

COc1cc(/C=N/Nc2cc(C)nc(NS(=O)(=O)c3ccc(C)cc3)n2)ccc1O
IC50 [1]: > 100 µM (inactive)
IC50 [2]: > 100 µM (not active)

Cc1cc(C)nc(N/N=C/c2c(CO)cnc(C)c2O)n1
IC50 (Nonstructural protein 1): 20.2 µM (active)

O=C(c1cccc(F)c1)N1CC(=O)N2[C@H](CO)[C@H](c3ccc(-c4cccnc4)cc3)[C@H]2C1
AC50 [22]: 0.326 µM (active)
AC50 [23]: 0.186 µM (active)
AC50 [24]: > 100 µM (inactive)
AC50 [25]: 0.198 µM (active)
AC50 [26]: 0.133 µM (active)

O=C(Nc1ccc(C(F)(F)F)cc1)N1[C@@H]2CNC[C@H]1[C@H]2c1ccc(/C=C/c2ccccc2)cc1
AC50 [22]: 2.46 µM (active)
AC50 [23]: 1.52 µM (active)
AC50 [24]: 66.2 µM (active)
AC50 [25]: 1.76 µM (active)
AC50 [26]: 1.4 µM (active)

Cc1cc(C)nc(NCc2ccc(O)c(O)c2)n1
IC50 [27]: 27 µM (active)
